From PMC3166015 (Emerging Infectious Diseases, 2011)

Molecular target: NA activity of oseltamivir-resistant (OR, H275Y) pandemic (H1N1) 2009 virus (Influenza A virus, UniProt C3W5S3, H275Y)
Type: biochemical

CC(=O)N[C@H]1[C@H]([C@H](O)[C@H](O)CO)OC(C(=O)O)=C[C@@H]1N=C(N)N [Zanamivir, zanamivir]
susceptibility by NA inhibition assay: sensitive

CCC(CC)[C@H](NC(C)=O)[C@@H]1[C@H](O)[C@@H](C(=O)O)C[C@H]1N=C(N)N [peramivir]
peramivir susceptibility: cross-resistance
